Source: ChEMBL document CHEMBL5634133, “Indirubin derivatives as bifunctional molecules inducing DNA damage and targeting PARP for the treatment of cancer” (Eur J Med Chem, 2023)
The source made the active and inactive calls. The rule behind the calls is not given here.

What was measured:
HCT-116 [1] = test: Antiproliferative activity against human HCT-116 cells assessed as inhibition of colony formation incubated for 48 hrs medium replaced with every 14 days by crystal violet staining based optical microscope; type: functional, cell-based; conditions: time 14.0 day
HCT-116 [2] = test: Induction of apoptosis in human HCT-116 cells assessed as early apoptotic cells at 1 uM incubated for 48 hrs by Annexin V-PE/7-AAD staining based flow cytometry analysis (reference value: 6.78 %); type: functional
HCT-116 [3] = test: Antitumor activity against human HCT-116 cells xenografted in BALB/c nude mouse assessed as tumor growth inhibition at 10 mg/kg, ip administered for 14 days relative to control; type: functional; conditions: HCT-116, 336 h, time 14 day, read-out: TGI
HCT-116 [4] = test: Induction of apoptosis in human HCT-116 cells assessed as viable cells at 0.5 uM incubated for 48 hrs by Annexin V-PE/7-AAD staining based flow cytometry analysis (reference value: 92.8 %); type: functional; conditions: read-out: Activity
HCT-116 [5] = test: Induction of apoptosis in human HCT-116 cells assessed as increase in accumulation of cells at S phase at 0.25 to 1 uM incubated for 48 hrs by propidium iodide staining based flow cytometry analysis (reference value: 24.67%); type: functional; conditions: dose 0.25-1 µM
HCT-116 [6] = test: Induction of apoptosis in human HCT-116 cells assessed as necrotic cells at 0.25 uM incubated for 48 hrs by Annexin V-PE/7-AAD staining based flow cytometry analysis (reference value: 0 %); type: functional
HCT-116 [7] = test: Induction of apoptosis in human HCT-116 cells assessed as increase in Cleaved-PARP protein expression level by Western blotting analysis; type: functional, cell-based; conditions: dose 0.25-1 µM
HCT-116 [8] = test: Induction of apoptosis in human HCT-116 cells assessed as increase in Bax protein expression level by Western blotting analysis; type: functional, cell-based; conditions: dose 0.25-1 µM
HCT-116 [9] = test: Antiproliferative activity against human HCT-116 cells transfected with PARP1 siRNA assessed as inhibition of cell viability at 0.5 uM incubated for 72 hrs by CCK8 assay; type: functional, cell-based
HCT-116 [10] = test: Induction of apoptosis in human HCT-116 cells assessed as viable cells at 0.25 uM incubated for 48 hrs by Annexin V-PE/7-AAD staining based flow cytometry analysis (reference value: 92.8 %); type: functional; conditions: read-out: Activity
[11] = Toxicity in BALB/c nude mouse xenografted with human HCT-116 cells assessed as tissue morphology at 20 mg/kg, ip administered for 14 days by hematoxylin and eosin staining based assay; type: organism-based; conditions: in vivo, 336 h, time 14 day
HCT-116 [12] = test: Induction of DNA damage in human HCT-116 cells assessed as increase in gammaH2AX phosphorylation level incubated for 48 hrs by Western blotting analysis; type: functional, cell-based; conditions: dose 0.25-1 µM
[13] = biological target: T1, Poly [ADP-ribose] polymerase 1 (Homo sapiens, UniProt P09874); test: Inhibition of PARP1 in human HCT-116 cells assessed as inhibition of PARP-induced PARylation incubated for 48 hrs by Western blotting analysis; type: cell-based; conditions: dose 0.25-1 µM
T1 sequence (P09874 whole entry): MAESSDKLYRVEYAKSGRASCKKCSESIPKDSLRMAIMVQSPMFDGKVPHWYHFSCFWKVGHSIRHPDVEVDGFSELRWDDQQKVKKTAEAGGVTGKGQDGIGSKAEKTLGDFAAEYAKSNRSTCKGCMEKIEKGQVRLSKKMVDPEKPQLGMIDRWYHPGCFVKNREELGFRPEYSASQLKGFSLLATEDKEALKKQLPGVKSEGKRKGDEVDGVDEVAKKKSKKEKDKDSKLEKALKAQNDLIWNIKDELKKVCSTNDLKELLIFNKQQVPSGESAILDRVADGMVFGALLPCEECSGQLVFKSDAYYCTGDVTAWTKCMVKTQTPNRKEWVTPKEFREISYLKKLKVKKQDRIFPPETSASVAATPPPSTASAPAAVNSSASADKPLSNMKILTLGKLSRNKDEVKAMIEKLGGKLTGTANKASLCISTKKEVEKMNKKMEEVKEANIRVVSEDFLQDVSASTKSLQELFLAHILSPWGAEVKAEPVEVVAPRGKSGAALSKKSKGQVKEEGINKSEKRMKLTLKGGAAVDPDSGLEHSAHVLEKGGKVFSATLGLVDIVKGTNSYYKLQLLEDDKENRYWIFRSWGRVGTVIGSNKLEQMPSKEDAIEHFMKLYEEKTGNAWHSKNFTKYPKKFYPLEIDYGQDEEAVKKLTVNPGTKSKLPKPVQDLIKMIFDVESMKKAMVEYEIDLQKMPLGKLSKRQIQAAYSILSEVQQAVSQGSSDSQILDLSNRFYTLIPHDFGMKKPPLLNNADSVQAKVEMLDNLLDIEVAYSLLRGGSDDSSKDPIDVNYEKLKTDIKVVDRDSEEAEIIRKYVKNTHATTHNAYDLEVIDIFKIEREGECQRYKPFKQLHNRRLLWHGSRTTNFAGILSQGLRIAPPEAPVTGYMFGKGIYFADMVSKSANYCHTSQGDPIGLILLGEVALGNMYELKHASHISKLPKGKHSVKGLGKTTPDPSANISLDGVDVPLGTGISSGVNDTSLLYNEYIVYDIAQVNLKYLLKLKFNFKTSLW

HCT-116 [14] = test: Induction of apoptosis in human HCT-116 cells assessed as necrotic cells at 0.5 uM incubated for 48 hrs by Annexin V-PE/7-AAD staining based flow cytometry analysis (reference value: 0 %); type: functional
HCT-116 [15] = test: Induction of apoptosis in human HCT-116 cells assessed as early apoptotic cells at 0.5 uM incubated for 48 hrs by Annexin V-PE/7-AAD staining based flow cytometry analysis (reference value: 6.78 %); type: functional
HCT-116 [16] = test: Induction of apoptosis in human HCT-116 cells assessed as increase in Cleaved-Caspase-3 protein expression level by Western blotting analysis; type: functional, cell-based; conditions: dose 0.25-1 µM
HCT-116 [17] = test: Induction of apoptosis in human HCT-116 cells assessed as decrease in Caspase-3 protein expression level by Western blotting analysis; type: functional, cell-based; conditions: dose 0.25-1 µM
A549 = test: Antiproliferative activity against human A549 cells assessed as inhibition of cell viability incubated for 72 hrs by CCK8 assay; type: functional, cell-based; conditions: A549, 72 h
HCT-116 [18] = test: Induction of apoptosis in human HCT-116 cells assessed as viable cells at 1 uM incubated for 48 hrs by Annexin V-PE/7-AAD staining based flow cytometry analysis (reference value: 92.8 %); type: functional; conditions: read-out: Activity
[19] = Half life in BALB/c mouse at 20 mg/kg, po and measured after 24 hrs by LC-MS/MS analysis; type: ADME, organism-based; conditions: in vivo
HCT-116 [20] = test: […] in human HCT-116 cells assessed as decrease in accumulation of cells at G2/M phase at 0.25 to 1 uM incubated for 48 hrs by propidium iodide staining based flow cytometry analysis (Rvb =34.99%); type: functional; parameters: scale not given: the % may be the effect or the level left; conditions: dose 0.25-1 µM
[21] = Cmax in BALB/c mouse at 20 mg/kg, po and measured after 24 hrs by LC-MS/MS analysis; type: ADME, organism-based; conditions: in vivo
HCT-116 [22] = test: Antitumor activity against human HCT-116 cells xenografted in BALB/c nude mouse assessed as reduction in tumor weight at 10 mg/kg, ip administered for 14 days relative to control; type: functional, organism-based; conditions: time 14.0 day
HCT-116 [23] = test: Induction of apoptosis in human HCT-116 cells assessed as early apoptotic cells at 0.25 uM incubated for 48 hrs by Annexin V-PE/7-AAD staining based flow cytometry analysis (reference value: 6.78 %); type: functional
MCF7 = test: Antiproliferative activity against human MCF7 cells assessed as inhibition of cell viability incubated for 72 hrs by CCK8 assay; type: functional, cell-based; conditions: MCF7, 72 h
[24] = Toxicity in BALB/c nude mouse xenografted with human HCT-116 cells assessed as change in body weight at 20 mg/kg, ip administered for 14 days; type: organism-based; conditions: in vivo, 336 h, time 14 day
HCT-116 [25] = test: Antiproliferative activity against human HCT-116 cells assessed as decrease in number of EdU-positive cells at 0.25 to 1 uM incubated for 48 hrs in presence of EdU labeling agent by Hoechst staining based confocal microscopy; type: functional, cell-based; conditions: dose 0.25-1 µM
HCT-116 [26] = test: Induction of apoptosis in human HCT-116 cells assessed as decrease in Bcl-2 protein expression level by Western blotting analysis; type: functional, cell-based; conditions: dose 0.25-1 µM
HCT-116 [27] = test: Antitumor activity against human HCT-116 cells xenografted in BALB/c nude mouse assessed as suppression of tumor growth at 10 mg/kg, ip administered for 14 days relative to control; type: functional, organism-based; conditions: time 14.0 day
HCT-116 [28] = test: Induction of DNA damage in human HCT-116 cells assessed as increase in gammaH2AX phosphorylation level incubated for 48 hrs by DAPI staining based immunofluorescence analysis; type: functional, cell-based; conditions: dose 0.25-1 µM
MV4-11 = test: Antiproliferative activity against human MV4-11 cells assessed as inhibition of cell viability incubated for 72 hrs by CCK8 assay; type: functional, cell-based; conditions: MV4-11, 72 h
HCT-116 [29] = test: Induction of apoptosis in human HCT-116 cells assessed as late apoptotic cells at 0.5 uM incubated for 48 hrs by Annexin V-PE/7-AAD staining based flow cytometry analysis (reference value: 0.39 %); type: functional
[30] = biological target: T1, Poly [ADP-ribose] polymerase 1; conditions: dose 10.0 nM, time 10.0 min
[31] = biological target: T1, Poly [ADP-ribose] polymerase 1; test: Inhibition of PARP1 (unknown origin) incubated for 10 mins by chemiluminescence assay
NCM460 = test: Antiproliferative activity against human NCM460 cells assessed as inhibition of cell viability incubated for 72 hrs by CCK8 assay; type: functional, cell-based; conditions: NCM460, 72 h
HCT-116 [32] = test: Induction of apoptosis in human HCT-116 cells assessed as necrotic cells at 1 uM incubated for 48 hrs by Annexin V-PE/7-AAD staining based flow cytometry analysis (reference value: 0 %); type: functional
HCT-116 [33] = test: Induction of apoptosis in human HCT-116 cells assessed as late apoptotic cells at 0.25 uM incubated for 48 hrs by Annexin V-PE/7-AAD staining based flow cytometry analysis (reference value: 0.39 %); type: functional
[34] = AUC(0 to infinity) in BALB/c mouse at 20 mg/kg, po and measured after 24 hrs by LC-MS/MS analysis; type: ADME, organism-based; conditions: in vivo
HCT-116 [35] = test: Antiproliferative activity against human HCT-116 cells assessed as inhibition of cell viability incubated for 72 hrs by CCK8 assay; type: functional, cell-based; conditions: HCT-116, 72 h
HCT-116 [36] = test: Induction of apoptosis in human HCT-116 cells assessed as late apoptotic cells at 1 uM incubated for 48 hrs by Annexin V-PE/7-AAD staining based flow cytometry analysis (reference value: 0.39 %); type: functional
[37] = Clearance in BALB/c mouse at 20 mg/kg, po and measured after 24 hrs by LC-MS/MS analysis; type: ADME, organism-based; conditions: in vivo
[38] = AUC(0 to t) in BALB/c mouse at 20 mg/kg, po and measured after 24 hrs by LC-MS/MS analysis; type: ADME, organism-based; conditions: in vivo
HCT-116 [39] = test: Antitumor activity against human HCT-116 cells xenografted in BALB/c nude mouse assessed as tumor growth inhibition at 20 mg/kg, ip administered for 14 days relative to control; type: functional; conditions: Mus musculus, HCT-116, 336 h, time 14 day, read-out: TGI

For `O=C1Nc2ccccc2/C1=C1/Nc2ccccc2/C1=N\OCCCC(=O)N1CCN(C(=O)c2ccc(Cc3n[nH]c(=O)c4ccccc34)cc2F)CC1`, the Activity (HCT-116 [1]) was “Dose-Dependent Effect”, the Activity (HCT-116 [2]) was 22.7% and the inhibition in vivo at 10 mg/kg (HCT-116 [3]) was 75.9%. For the same compound, the viability at 0.5 µM (HCT-116 [4]) was 83.7%, the Activity (HCT-116 [5]) was 41.03% and the Activity (HCT-116 [6]) was 0.12%. For the same compound, the Activity (HCT-116 [7]) was “Dose-Dependent Effect”, the Activity (HCT-116 [8]) was “Dose-Dependent Effect” and the Activity (HCT-116 [9]) was “inactive”. The viability at 0.25 µM (HCT-116 [10]) was 89.3%, the Activity [11] was “Non-Toxic” and the Activity (HCT-116 [12]) was “Dose-Dependent Effect”. For the same compound, the inhibition [13] was “Dose-Dependent Effect”, the Activity (HCT-116 [14]) was 0.11% and the Activity (HCT-116 [15]) was 14.6%. For the same compound, the Activity (HCT-116 [16]) was “Dose-Dependent Effect”, the Activity (HCT-116 [17]) was “Dose-Dependent Effect” and the IC50 (A549) was 3260 nM. The viability at 1 µM (HCT-116 [18]) was 69.4%, the half-life [19] was 5.82 h and the Activity (HCT-116 [20]) was 10.5%. The Cmax [21] was 6040 ng/mL, the Activity (HCT-116 [22]) was “Active” and the Activity (HCT-116 [23]) was 8.64%. The IC50 (MCF7) was 1600 nM, the Activity [24] was “Non-Toxic” and the Activity (HCT-116 [25]) was “Active”. The Activity (HCT-116 [26]) was “Dose-Dependent Effect”, the Activity (HCT-116 [27]) was “Active” and the Activity (HCT-116 [28]) was “Dose-Dependent Effect”. It also gave an IC50 (MV4-11) of 520 nM, an Activity (HCT-116 [29]) of 1.05% and an inhibition [30] of 64.8%. It also gave an IC50 [31] of 1.89 nM, an IC50 (NCM460) of over 60000 nM and an Activity (HCT-116 [32]) of 0.28%. It also gave an Activity (HCT-116 [33]) of 1.76%, an AUC [34] of 6450 ng·h/mL and an IC50 (HCT-116 [35]) of 310 nM. The Activity (HCT-116 [36]) was 7.01%, the CL [37] was 51.65 mL/min/kg and the AUCt [38] was 5900 ng·h/mL. It also gave an inhibition in vivo at 20 mg/kg (HCT-116 [39]) of 86.6%.
